Measurements as given in patent US20240409536A1, “COMPOUNDS AND METHODS FOR MODULATING SPLICING” (REMIX THERAPEUTICS INC., priority 2021, published 2024).

How the values were obtained:
HTT mRNA = experiment: Gene panel canonical junction qPCR assay, HTT CJ mRNA decrease; assay type: cell-based, human; settings: Homo sapiens, canonical junction qPCR, read-out: HTT IC50 (decrease in CJ mRNA levels)
Procedure, shortened: (§1)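 IC50 values describe loss of canonical-junction transcript, fitted by 4-parameter logistic to percent response derived from fixed ΔCt windows. Read-out: RT-qPCR on lysates of compound-treated K562 or A673 cells, probes overlapping the exon junction, ΔΔCt versus housekeeping gene and DMSO control.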

MYB mRNA = experiment: Gene panel canonical junction qPCR assay, MYB CJ mRNA decrease; assay type: cell-based, human; settings: Homo sapiens, canonical junction qPCR, read-out: MYB IC50 (decrease in CJ mRNA levels)
Procedure, shortened: as §1

SMN2 mRNA = experiment: Gene panel canonical junction qPCR assay, SMN2 CJ mRNA decrease; assay type: cell-based, human; settings: Homo sapiens, canonical junction qPCR, read-out: SMN2 IC50 (decrease in CJ mRNA levels)
Procedure, shortened: as §1

Target C mRNA = experiment: Gene panel canonical junction qPCR assay, Target C CJ mRNA decrease; assay type: cell-based; settings: Homo sapiens, canonical junction qPCR, read-out: Target C IC50 (decrease in CJ mRNA levels)
Procedure, shortened: as §1

HiBiT-tagged HTT protein = experiment: HiBiT protein abundance assay, HTT (K562 HiBiT knock-in cells); assay type: cell-based, human; settings: 24 hours
Procedure, shortened: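 Luminescent readout of HiBiT-tagged endogenous protein after lysis, following 24 h compound exposure of knock-in K562 lines at 37 °C. Ten 3-fold concentrations from 10 μM final, DMSO ≤0.25%. Four-parameter logistic fit of normalized response gives concentration halving abundance (IC50).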

Row | SMILES | IC50 (HTT mRNA) | IC50 (MYB mRNA) | IC50 (SMN2 mRNA) | IC50 (Target C mRNA) | IC50 (HiBiT-tagged HTT protein)
1 | Cc1cn2cc(NC(=O)c3ccc(N4CCC(NC5CC5)CC4)c4nccnc34)cc(F)c2n1 [Compound 258, 8-(4-(cyclopropylamino)piperidin-1-yl)-N-(8-fluoro-2-methylimidazo[1,2-a]pyridin-6-yl)quinoxaline-5-carboxamide] | 100 to 1000 nM | 100 to 1000 nM | < 100 nM | 100 to 1000 nM | 100 to 1000 nM
2 | COc1nc(NC(=O)c2ccc(N3C[C@@H](C)N[C@@H](C)C3)c3nccnc23)cc2cn(C)nc12 [Compound 352] | 1000 to 10000 nM | 100 to 1000 nM | < 100 nM | 1000 to 10000 nM | 1000 to 10000 nM
3 | COc1cnc2c(N3CC[C@@H](N(C)C)C3)ccc(C(=O)Nc3cc(F)c4nc(C)cn4c3)c2n1 [Compound 244, 8-[(3R)-3-(dimethylamino)pyrrolidin-1-yl]-N-{8-fluoro-2-methylimidazo[1,2-a]pyridin-6-yl}-3-methoxyquinoxaline-5-carboxamide] | 100 to 1000 nM | < 100 nM | < 100 nM | 100 to 1000 nM | 100 to 1000 nM
4 | C[C@@H]1CN(c2ccc(C(=O)Nc3ccc4nc(N(C)C)oc4c3)c3nccnc23)C[C@H](C)N1 [Compound 290] | > 10000 nM | 1000 to 10000 nM | > 10000 nM | > 10000 nM | > 10000 nM
5 | Cc1cn2cc(NC(=O)c3ccc(N4C[C@@H](C)N[C@@H](C)C4)c4cccnc34)cc(F)c2n1 [Compound 340] | 1000 to 10000 nM | 100 to 1000 nM | < 100 nM | 1000 to 10000 nM | 1000 to 10000 nM
6 | Cc1cn2cc(NC(=O)c3ccc(N4CCN[C@@H](C(C)C)C4)c4nccnc34)cc(F)c2n1 [Compound 250, N-{8-fluoro-2-methylimidazo[1,2-a]pyridin-6-yl}-8-[(3S)-3-isopropylpiperazin-1-yl]quinoxaline-5-carboxamide] | > 10000 nM | 100 to 1000 nM | < 100 nM | > 10000 nM | > 10000 nM
7 | Cn1cc2ccc(NC(=O)c3ccc(N4CCNCC4)c4ccnnc34)cc2n1 [Compound 115] | > 10000 nM | > 10000 nM | > 10000 nM | > 10000 nM | > 10000 nM
8 | Cc1cn2cc(NC(=O)c3ccc(N4C[C@@H](C)N[C@@H](C)C4)c4ncc(O)nc34)cc(F)c2n1 [Compound 275] | > 10000 nM | > 10000 nM | > 10000 nM | > 10000 nM | > 10000 nM
9 | Cc1cn2cc(NC(=O)c3ccc(N4CCC(N)(CF)CC4)c4nccnc34)cc(F)c2n1 [Compound 356] | 1000 to 10000 nM | 1000 to 10000 nM | 100 to 1000 nM | > 10000 nM | 1000 to 10000 nM
10 | Cc1cn2cc(NC(=O)c3ccc(N4CC[C@@H](N)C4)c4nccnc34)cc(F)c2n1 [Compound 315] | > 10000 nM | 100 to 1000 nM | < 100 nM | > 10000 nM | 1000 to 10000 nM
11 | Cc1cn2cc(NC(=O)c3ccc(N4C5CNCC54)c4nccnc34)cc(F)c2n1 (stereo not drawn) [Compound 262, 8-{3,6-diazabicyclo[3.1.0]hexan-6-yl}-N-{8-fluoro-2-methylimidazo[1,2-a]pyridin-6-yl}quinoxaline-5-carboxamide] | 100 to 1000 nM | 100 to 1000 nM | < 100 nM | 100 to 1000 nM | 100 to 1000 nM
12 | COc1ncc2c(N3C[C@@H](C)N[C@@H](C)C3)ccc(C(=O)Nc3cc(F)c4nc(C)cn4c3)c2n1 [Compound 300] | 100 to 1000 nM | < 100 nM | < 100 nM | 100 to 1000 nM | 100 to 1000 nM
13 | Cc1cn2cc(NC(=O)c3ccc(C4=CCNCC4)c4nccnc34)cc(F)c2n1 [Compound 240, N-{8-fluoro-2-methylimidazo[1,2-a]pyridin-6-yl}-8-(1,2,3,6-tetrahydropyridin-4-yl)quinoxaline-5-carboxamide] | < 100 nM | < 100 nM | < 100 nM | 100 to 1000 nM | < 100 nM
14 | Cc1nc2c(F)cc(NC(=O)c3ccc(N4CCNCC4)c4ccnnc34)cc2s1 [Compound 118] | 100 to 1000 nM | 100 to 1000 nM | < 100 nM | 100 to 1000 nM | 100 to 1000 nM
15 | Cc1cn2cc(NC(=O)c3ccc(N4C[C@@H](C)N[C@@H](C)C4)c4nccnc34)nc(C)c2n1 [Compound 288] | 1000 to 10000 nM | < 100 nM | < 100 nM | 1000 to 10000 nM | 1000 to 10000 nM
16 | Cc1cn2cc(NC(=O)c3ccc([C@@]45CCNCC4C5)c4nccnc34)cc(F)c2n1 (stereo in doubt) [Compound 248, 8-{3-azabicyclo[4.1.0]heptan-6-yl}-N-{8-fluoro-2-methylimidazo[1,2-a]pyridin-6-yl}quinoxaline-5-carboxamide 2,2,2-trifluoroacetate] | 1000 to 10000 nM | 100 to 1000 nM | < 100 nM | 1000 to 10000 nM | 1000 to 10000 nM
17 | Cn1cc2c(F)cc(NC(=O)c3ccc(N4CCNCC4)c4ccnnc34)cc2n1 [Compound 116] | > 10000 nM | > 10000 nM | > 10000 nM | > 10000 nM | > 10000 nM
18 | C[C@@H]1CN(c2ccc(C(=O)Nc3cc(F)c4nc(O)cn4c3)c3nccnc23)C[C@H](C)N1 [Compound 360] | > 10000 nM | > 10000 nM | 1000 to 10000 nM | > 10000 nM | > 10000 nM

More lines, now with the values ahead:

Row | IC50 (HTT mRNA) | IC50 (MYB mRNA) | IC50 (SMN2 mRNA) | IC50 (Target C mRNA) | IC50 (HiBiT-tagged HTT protein) | SMILES
19 | > 10000 nM | 1000 to 10000 nM | 1000 to 10000 nM | > 10000 nM | > 10000 nM | COc1nc2ccc(NC(=O)c3ccc(N4C[C@@H](C)N[C@@H](C)C4)c4nccnc34)cc2o1 [Compound 292]
20 | 1000 to 10000 nM | < 100 nM | < 100 nM | > 10000 nM | 100 to 1000 nM | Cc1cn2cc(NC(=O)c3ccc(N4C[C@@H](C)N[C@@H](C5CC5)C4)c4nccnc34)cc(F)c2n1 [Compound 266, 8-((3S,5R)-3-cyclopropyl-5-methylpiperazin-1-yl)-N-(8-fluoro-2-methylimidazo[1,2-a]pyridin-6-yl)quinoxaline-5-carboxamide]
21 | 1000 to 10000 nM | 100 to 1000 nM | < 100 nM | 1000 to 10000 nM | 1000 to 10000 nM | COc1ccc2c(N3C[C@@H](C)N[C@@H](C)C3)ccc(C(=O)Nc3cc(F)c4nc(C)cn4c3)c2n1 [Compound 268, 5-[(3R,5S)-3,5-dimethylpiperazin-1-yl]-N-{8-fluoro-2-methylimidazo[1,2-a]pyridin-6-yl}-2-methoxyquinoline-8-carboxamide]
22 | 1000 to 10000 nM | < 100 nM | < 100 nM | 1000 to 10000 nM | 1000 to 10000 nM | Cc1cn2cc(NC(=O)c3ccc(N4CCNC(C)(CO)C4)c4nccnc34)cc(F)c2n1 (stereo not drawn) [Compound 368]
23 | 1000 to 10000 nM | 1000 to 10000 nM | 100 to 1000 nM | 1000 to 10000 nM | 1000 to 10000 nM | Cc1cn2cc(NC(=O)c3ccc(N4CCN[C@@H](CF)C4)c4nccnc34)cc(F)c2n1 [Compound 367]
24 | 100 to 1000 nM | < 100 nM | < 100 nM | 1000 to 10000 nM | 100 to 1000 nM | Cc1cn2cc(NC(=O)c3ccc(N4CCC(NC5CC5)CC4)c4ccnnc34)cc(F)c2n1 [Compound 259, 5-[4-(cyclopropylamino)piperidin-1-yl]-N-{8-fluoro-2-methylimidazo[1,2-a]pyridin-6-yl} cinnoline-8-carboxamide]
25 | 1000 to 10000 nM | 1000 to 10000 nM | < 100 nM | 1000 to 10000 nM | 1000 to 10000 nM | Cc1cn2cc(NC(=O)c3ccc(N4CCNCC4)c4ccnnc34)c(C)cc2n1 [Compound 119]
26 | 1000 to 10000 nM | < 100 nM | < 100 nM | 1000 to 10000 nM | 1000 to 10000 nM | Cc1cn2cc(NC(=O)c3c(F)cc(N4C[C@@H](C)N[C@@H](C)C4)c4nccnc34)cc(F)c2n1 [Compound 261, cis-8-[(3R,5S)-3,5-dimethylpiperazin-1-yl]-6-fluoro-N-{8-fluoro-2-methylimidazo[1,2-a]pyridin-6-yl}quinoxaline-5-carboxamide]
27 | > 10000 nM | 100 to 1000 nM | < 100 nM | > 10000 nM | > 10000 nM | Cc1c(O)c(NC(=O)c2ccc(N3C[C@@H](C)N[C@@H](C)C3)c3nccnc23)cc2cn(C)nc12 [Compound 310]
28 | 1000 to 10000 nM | 1000 to 10000 nM | 100 to 1000 nM | 1000 to 10000 nM | 1000 to 10000 nM | C[C@@H]1CN(c2ccc(C(=O)Nc3cc(F)c4cnccc4c3)c3nccnc23)C[C@H](C)N1 [Compound 343]
29 | 1000 to 10000 nM | 100 to 1000 nM | < 100 nM | 1000 to 10000 nM | 1000 to 10000 nM | Cc1cn2cc(NC(=O)c3ccc(N4CCN[C@H](CF)C4)c4nccnc34)cc(F)c2n1 [Compound 366]
30 | 1000 to 10000 nM | < 100 nM | < 100 nM | > 10000 nM | 1000 to 10000 nM | Cc1cn2cc(NC(=O)c3ccc(N4C[C@@H](C)N[C@H](C)C4)c4nccnc34)cc(F)c2n1 [Compound 312]
